Reference: ChEMBL document CHEMBL4402545, “Subtype Selective γ-Aminobutyric Acid Type A Receptor (GABAAR) Modulators Acting at the Benzodiazepine Binding Site: An Update” (J Med Chem, 2020)

Key:
[1] = system: Rattus norvegicus; assay: In vivo receptor occupancy at GABAA receptor in po dosed Sprague-Dawley rat assessed as forebrain concentration causing 50% reduction in [3H]-flumazenil receptor labeling after 1 hr by scintillation counting method; type: functional
[2] = target: T1, Gamma-aminobutyric acid receptor subunit alpha-1 (Homo sapiens) (UniProt P14867); assay: Positive allosteric modulation of GABAA alpha1 (unknown origin) relative to control
T1 sequence (whole entry): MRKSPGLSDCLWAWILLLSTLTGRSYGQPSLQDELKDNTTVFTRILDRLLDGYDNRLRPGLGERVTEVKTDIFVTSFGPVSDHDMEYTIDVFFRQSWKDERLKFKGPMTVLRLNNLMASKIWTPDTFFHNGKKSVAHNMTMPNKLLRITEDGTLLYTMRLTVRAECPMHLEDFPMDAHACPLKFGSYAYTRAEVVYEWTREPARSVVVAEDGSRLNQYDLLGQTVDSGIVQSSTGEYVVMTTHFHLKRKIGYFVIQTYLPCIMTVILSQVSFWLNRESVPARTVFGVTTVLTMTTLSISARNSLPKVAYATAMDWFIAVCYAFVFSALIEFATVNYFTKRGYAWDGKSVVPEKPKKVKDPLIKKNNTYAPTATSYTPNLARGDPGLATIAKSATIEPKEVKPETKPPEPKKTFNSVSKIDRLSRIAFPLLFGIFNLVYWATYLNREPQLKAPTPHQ

[3] = Half life in rat at 1 mg/kg, po; type: ADME, organism-based; details: in vivo
[4] = system: Rattus norvegicus; assay: In vivo receptor occupancy at GABAA receptor in po dosed Sprague-Dawley rat assessed as spinal cord concentration causing 50% reduction in [3H]-flumazenil receptor labeling after 1 hr by scintillation counting method; type: functional
[5] = Displacement of [3H]-flumazenil from human GABAA alpha2beta3gamma2 expressed in HEK293 cell membranes measured after 2 hrs by liquid scintillation counting method
[6] = system: Homo sapiens; assay: In vivo receptor occupancy GABAA receptor in human assessed as whole brain concentration causing reduction in [11C]flumazenil receptor labeling at 65 mg after […] by PET method relative to control; type: functional
[7] = target: T2, Gamma-aminobutyric acid receptor subunit alpha-2 (Homo sapiens) (UniProt P47869); assay: Positive allosteric modulation of GABAA alpha2 (unknown origin) relative to control
T2 sequence (whole entry): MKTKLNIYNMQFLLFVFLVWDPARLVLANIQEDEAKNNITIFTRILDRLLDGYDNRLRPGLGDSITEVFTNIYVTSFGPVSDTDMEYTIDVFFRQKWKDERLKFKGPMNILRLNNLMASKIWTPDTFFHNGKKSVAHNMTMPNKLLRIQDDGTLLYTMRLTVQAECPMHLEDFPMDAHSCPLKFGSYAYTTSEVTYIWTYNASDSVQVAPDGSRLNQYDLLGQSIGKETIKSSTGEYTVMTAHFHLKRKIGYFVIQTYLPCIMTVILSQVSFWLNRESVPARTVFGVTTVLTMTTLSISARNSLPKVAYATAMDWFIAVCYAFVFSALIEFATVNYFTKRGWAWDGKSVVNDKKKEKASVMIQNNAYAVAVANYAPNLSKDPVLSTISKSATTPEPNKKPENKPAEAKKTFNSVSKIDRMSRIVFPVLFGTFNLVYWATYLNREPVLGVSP

[8] = target: T3, Gamma-aminobutyric acid receptor subunit alpha-3 (Homo sapiens) (UniProt P34903); assay: Binding affinity to GABA-A alpha3 (unknown origin) assessed as increase in induced current relative to control
T3 sequence (whole entry): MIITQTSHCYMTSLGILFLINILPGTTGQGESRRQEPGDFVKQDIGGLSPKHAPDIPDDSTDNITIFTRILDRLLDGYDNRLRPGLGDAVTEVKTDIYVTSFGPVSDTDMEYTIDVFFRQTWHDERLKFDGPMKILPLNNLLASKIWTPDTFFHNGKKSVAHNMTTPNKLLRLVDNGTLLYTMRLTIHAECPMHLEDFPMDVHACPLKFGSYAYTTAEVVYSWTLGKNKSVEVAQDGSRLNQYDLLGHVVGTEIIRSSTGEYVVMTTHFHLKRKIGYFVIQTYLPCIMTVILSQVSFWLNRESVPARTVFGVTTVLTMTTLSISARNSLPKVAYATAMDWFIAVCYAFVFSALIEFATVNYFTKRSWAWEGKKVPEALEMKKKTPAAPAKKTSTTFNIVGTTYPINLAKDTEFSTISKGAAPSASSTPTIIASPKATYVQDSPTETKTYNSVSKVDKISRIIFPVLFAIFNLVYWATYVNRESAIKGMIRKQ

[9] = target: T1, Gamma-aminobutyric acid receptor subunit alpha-1 (Homo sapiens); assay: Binding affinity to GABA-A alpha1 (unknown origin) assessed as increase in induced current relative to control
[10] = Intrinsic clearance in human liver microsomes; type: ADME, Microsome; details: read-out: CLH
[11] = system: Homo sapiens; assay: In vivo receptor occupancy GABAA receptor in human assessed as whole brain concentration causing reduction in [11C]flumazenil receptor labeling at 10 mg after […] by PET method relative to control; type: functional
[12] = system: Rattus norvegicus; assay: In vivo receptor occupancy at GABAA receptor in po dosed Sprague-Dawley rat assessed as cerebellum concentration causing 50% reduction in [3H]-flumazenil receptor labeling after 1 hr by scintillation counting method; type: functional
[13] = target: T2, Gamma-aminobutyric acid receptor subunit alpha-2 (Homo sapiens); assay: Binding affinity to GABA-A alpha2 (unknown origin) assessed as increase in induced current relative to control
[14] = Half life in human at 0.04 to 100 mg, po; type: ADME; details: in vivo
[15] = target: T4, Gamma-aminobutyric acid receptor subunit alpha-5 (Homo sapiens) (UniProt P31644); assay: Binding affinity to GABA-A alpha5 (unknown origin) assessed as increase in induced current relative to control
T4 sequence (whole entry): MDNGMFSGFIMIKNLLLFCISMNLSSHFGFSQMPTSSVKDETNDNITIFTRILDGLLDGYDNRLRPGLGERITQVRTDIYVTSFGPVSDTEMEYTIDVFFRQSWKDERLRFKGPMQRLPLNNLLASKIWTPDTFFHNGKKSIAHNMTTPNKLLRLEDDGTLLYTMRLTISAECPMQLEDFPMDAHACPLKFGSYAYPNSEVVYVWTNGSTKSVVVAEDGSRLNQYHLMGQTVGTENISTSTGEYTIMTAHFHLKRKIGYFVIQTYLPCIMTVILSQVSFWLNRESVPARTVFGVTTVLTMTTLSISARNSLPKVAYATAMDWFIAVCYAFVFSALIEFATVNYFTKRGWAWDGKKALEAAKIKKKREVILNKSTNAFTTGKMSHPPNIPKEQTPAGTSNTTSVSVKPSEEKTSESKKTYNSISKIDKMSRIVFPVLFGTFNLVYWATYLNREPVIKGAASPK

[16] = target: T5, GABA-A receptor; alpha-3/beta-3/gamma-2 (Homo sapiens, UniProt P18507+P28472+P34903); assay: Displacement of [3H]-flumazenil from human GABAA alpha3beta3gamma2 expressed in Ltk cells; type: cell-based
T5 sequence (P18507 whole entry): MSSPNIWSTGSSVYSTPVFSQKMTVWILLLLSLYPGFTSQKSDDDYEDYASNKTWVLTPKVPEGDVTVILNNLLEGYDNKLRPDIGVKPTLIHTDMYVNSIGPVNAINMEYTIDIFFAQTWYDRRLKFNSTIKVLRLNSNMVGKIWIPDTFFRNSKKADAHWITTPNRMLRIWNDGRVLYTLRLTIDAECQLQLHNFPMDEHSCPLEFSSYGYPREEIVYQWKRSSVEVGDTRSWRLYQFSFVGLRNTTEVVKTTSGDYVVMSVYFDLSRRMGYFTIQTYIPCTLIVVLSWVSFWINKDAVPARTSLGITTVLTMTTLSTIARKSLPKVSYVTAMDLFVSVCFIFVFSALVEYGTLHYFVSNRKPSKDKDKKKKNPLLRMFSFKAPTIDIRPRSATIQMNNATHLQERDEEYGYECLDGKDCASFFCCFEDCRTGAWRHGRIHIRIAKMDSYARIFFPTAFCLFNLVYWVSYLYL
T5 sequence (P28472 whole entry): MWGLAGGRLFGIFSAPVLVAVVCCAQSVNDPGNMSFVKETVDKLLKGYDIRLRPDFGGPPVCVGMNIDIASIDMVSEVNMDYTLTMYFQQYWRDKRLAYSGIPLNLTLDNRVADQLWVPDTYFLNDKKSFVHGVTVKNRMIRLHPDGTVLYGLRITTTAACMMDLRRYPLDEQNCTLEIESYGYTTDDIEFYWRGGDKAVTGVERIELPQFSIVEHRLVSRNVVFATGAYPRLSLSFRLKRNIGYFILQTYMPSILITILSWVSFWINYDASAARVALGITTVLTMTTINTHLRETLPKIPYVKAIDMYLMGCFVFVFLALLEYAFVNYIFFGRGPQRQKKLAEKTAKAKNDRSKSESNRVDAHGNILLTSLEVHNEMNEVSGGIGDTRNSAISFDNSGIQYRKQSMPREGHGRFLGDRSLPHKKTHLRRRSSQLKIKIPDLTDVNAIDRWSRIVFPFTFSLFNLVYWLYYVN
T5 sequence (P34903 whole entry): T3 sequence (whole entry)

[17] = target: GABA-A receptor; alpha-1/beta-3/gamma-2 (Homo sapiens) (UniProt P14867+P18507+P28472); assay: Positive allosteric modulation of recombinant human GABAA alpha1beta3gamma2 expressed in Ltk cells assessed as […] current response by whole cell patch clamp method relative to chlordiazepoxide; type: cell-based
[18] = species on record: Homo sapiens; assay: Positive allosteric modulation of recombinant human GABAA alpha2beta3gamma2 expressed in Ltk cells assessed as […] current response by whole cell patch clamp method relative to chlordiazepoxide; type: cell-based
[19] = target: T6, GABA-A receptor; alpha-5/beta-3/gamma-2 (Homo sapiens, UniProt P18507+P28472+P31644); assay: Displacement of [3H]-flumazenil from human GABAA alpha5beta3gamma2 expressed in Ltk cells; type: cell-based
T6 sequence (P18507 whole entry): T5 sequence (P18507 whole entry)
T6 sequence (P28472 whole entry): T5 sequence (P28472 whole entry)
T6 sequence (P31644 whole entry): T4 sequence (whole entry)

[20] = target: GABA-A receptor; alpha-5/beta-3/gamma-2 (Homo sapiens) (UniProt P18507+P28472+P31644); assay: Positive allosteric modulation of recombinant human GABAA alpha5beta3gamma2 expressed in Ltk cells assessed as […] current response by whole cell patch clamp method relative to chlordiazepoxide; type: cell-based
[21] = target: T7, GABA-A receptor; alpha-1/beta-3/gamma-2 (Homo sapiens, UniProt P14867+P18507+P28472); assay: Displacement of [3H]-flumazenil from human GABAA alpha1beta3gamma2 expressed in Ltk cells; type: cell-based
T7 sequence (P14867 whole entry): T1 sequence (whole entry)
T7 sequence (P18507 whole entry): T5 sequence (P18507 whole entry)
T7 sequence (P28472 whole entry): T5 sequence (P28472 whole entry)

[22] = system: Rattus norvegicus; assay: In vivo receptor occupancy at GABAA receptor in po dosed Sprague-Dawley rat assessed as brain concentration causing 50% reduction in [3H]-flumazenil receptor labeling by scintillation counting method; type: functional
[23] = Displacement of [3H]-flumazenil from human GABAA alpha2beta3gamma2 expressed in Ltk cells; type: cell-based
[24] = target: GABA-A receptor; alpha-3/beta-3/gamma-2 (Homo sapiens) (UniProt P18507+P28472+P34903); assay: Positive allosteric modulation of recombinant human GABAA alpha3beta3gamma2 expressed in Ltk cells assessed as […] current response by whole cell patch clamp method relative to chlordiazepoxide; type: cell-based

Structure (SMILES): CCn1cnc2c(-c3ccc(F)c(-c4ccc(S(=O)(=O)CC)cc4OC)c3)cnnc21 [DARIGABAT]
- Occ50 [1]: 0.3 to 1 mg/kg
- Activity [2]: < 20%
- half-life [3]: 5.5 h
- Occ50 [4]: 0.3 to 1 mg/kg
- Ki [5]: 2920 pM
- Occ [6]: 89%
- Activity [7]: > 50%
- fold change (FC) [8]: 0.49
- fold change (FC) [9]: 0.11
- microsomal CLint [10]: < 20 µL/min/mg
- Occ [11]: 69%
- Occ50 [12]: 0.3 to 1 mg/kg
- fold change (FC) [13]: 0.35
- half-life [14]: 6 to 8.9 h
- fold change (FC) [15]: 0.7

Structure (SMILES): Cn1ncnc1COc1nn2c(-c3c(F)cccc3F)nnc2cc1C1CCC1
- Ki [16]: 210 pM
- fold change (FC) [17]: 0.18
- fold change (FC) [18]: 0.23
- Ki [19]: 230 pM
- fold change (FC) [20]: 0.18
- Ki [21]: 220 pM
- Occ50 [22]: 2.2 mg/kg
- Ki [23]: 400 pM
- fold change (FC) [24]: 0.45
